Assay results: US20250262188A1, “Methods of Increasing the Plasma Drug Exposure of Anticancer Agents” (Scandion Oncology A/S, priority 2021, published 2025)

Key:
[1] = Plasma concentrations of SCO-101 and SN-38 in patients upon repeated administration of SCO-101 (Example 1); type: in vivo, human; details: 150 mg SCO-101 repeated every 24 hours, FIG. 1D
Experimental: On days 1, 2, 3, 4, 5 and 6 in each treatment cycle, patients received one fixed daily dose of 150 mg SCO-101 taken in the morning at least 30 minutes before ingestion of food. On day 5 to 7, patients received FOLFIRI as specified for Colorectal cancer combination regimen 2. Blood samples were taken from patients at predefined timepoints according to the study protocol. During the first cycle of treatment, blood samples for pharmacokinetic analysis of SCO-101, irinotecan, and SN-38 were taken as follows: • Day 1; (pre-SCO-101 administration, 1; 4; 5; 6; 8); only for PK analysis of SCO-101 • Day 2; […] (pre-SCO-101 administration, 1; 4; 5; 6; 8) • Day 6; […] (48 hours), • Day 9; (96 hours). Blood samples were collected in 4 mL blood-collection tubes using lithium heparin as the anti-coagulant. Blood samples were centrifuged, and the resulting plasma is withdrawn and stored at −70° C. until analysis. […] The method and system, including validation were according to industry standard. Data were analysed using commercially available software such as Win-Non-Lin (available from Certara inc.) SCO-101 and Irinotecan was administered as described in the materials and methods section. Blood samples were withdrawn and analysed as specified. […] Raw data was then plotted using win-non-lin software to obtain relevant pharmacokinetic parameters, e.g. Cmax and AUC. […]

[2] = SN-38 PK profile and tolerability in metastatic colorectal cancer patients treated with SCO-101 and FOLFIRI (Example 2); type: in vivo, human
Experimental: Patients with metastatic colorectal cancer were included in a study and treated with a combination of SCO-101 and FOLFIRI (combination of irinotecan, 5-FU and leucovorin) in 14 day treatment cycles. Patients received varying doses of Irinotecan between 50% and 80% of the recommended dose of Irinotecan (180 mg/m^2) according to their individual tolerability, which is standard practise. On days 1, 2, 3, 4, 5 and 6 in each treatment cycle, patients received one fixed daily dose of 150 mg SCO-101 taken in the morning at least 30 minutes before ingestion of food. On day 5 to 7, patients received FOLFIRI as specified for Colorectal cancer combination regimen 2.
Blood plasma samples were analysed for concentrations of SCO-101, irinotecan and SN-38 using Liquid Chromatography with Tandem Mass Spectrometric Detection (LC-MS/MS) bioanalytical method calibrated and validated in the rant 300 to 90.000 ng/ml. The method and system, including validation were according to industry standard. Data were analysed using commercially available software such as Win-Non-Lin (available from Certara inc.)
A trial was setup to address the safety, tolerability, and efficacy of SCO-101 given orally for 6 days followed by FOLFIRI at varying doses from day 5 to 7, in a biweekly schedule, in patients with metastatic colorectal cancer who have formerly been treated with FOLFIRI and afterwards progressed. The first part of the study was a dose-finding study, where the impact of SCO-101 on the pharmacokinetics (PK) of SN-38 was studied.
12 patients from the dose-finding part of the study received 150 mg SCO-101 for 6 days and […] of the recommended dose of FOLFIRI. 6 of the patients had RAS wildtype tumors and these patients were subjected to further analysis.
Blood for pharmacokinetic analysis was sampled from the patients were taken at 1, 2, 4, 8, 24, 48, and 96 hours after treatment with FOLFIRI and SCO-101.

SCO-101 plasma level at which levels stabilize over time ([1]; modelled from patient data): around 55 μg/mL
half-life ([1]; human, plasma, oral, read-out: SCO-101 half-life after stopping the administration (converted)): ~24 h
Compound: O=C(Nc1cc(C(F)(F)F)cc(C(F)(F)F)c1)Nc1ccc(Br)cc1-c1nnn[nH]1 [SCO-101]
Tolerability of the combined treatment ([2]; SCO-101 in combination with FOLFIRI, metastatic colorectal cancer patients): well tolerated
Toxicity profile (adverse events) ([2]; patients treated with SCO-101 and 90 mg irinotecan/m2 (50% FOLFIRI)): only grade 1 and 2 adverse events
